Measurements as given in US9101620B2, “Polymorph of 3-(substituteddihydroisoindolinone-2-yl)-2,6-dioxopiperidine, and pharmaceutical compositions thereof” (Nanjing Cavendish Bio-Engineering Technology Co., Ltd., priority 2009, dated 2015).

Columns and labels:
[1] = Destruction test: impurities in raw materials before destruction (HPLC); format: physicochemical
Description: The methods of destruction experiment of the Polymorph I of this invention (hereinafter referred to as “Polymorph I”) contrasting with the Polymorph A and B of 3-(4-amino-1-oxo-1,3-dihydro-2H-isoindole-2-yl)-piperidine-2,6-dione prepared by the method in CN 1871003A (hereinafter referred to as “Polymorph A” and “polymorph B”) and results of stability are followed:
(§1) HPLC conditions and system applicability: octadecylsilane bonded silica as the filler; 0.01 mol/L of potassium dihydrogen phosphate (adjusted to pH 3.5 by phosphoric acid)-methanol-acetonitrile (80:15:5) as the mobile phase; detection wavelength was 240 nm; the number of theoretical plates should be not less than 2000, calculated according to the peak of lenalidomide. The resolution of the peak of 3-(4-amino-1-oxo-1,3-dihydro-2H-isoindole-2-yl)-piperidine-2,6-dione from the peaks of adjacent impurities should meet requirements.
(§2) Determination method: sample was dissolved in mobile phase to be the solution containing 0.5 mg per 1 mL. 20 μL of such solution was injected into liquid chromatograph and chromatogram was recorded until fourfold the retention time of major component peak. If there were impurities peaks in the chromatogram of sample solution, total impurities and sole impurity were calculated by normalization method on the basis of peak area.

[2] = Oxidation destruction (30% H2O2), related substances by HPLC; format: physicochemical
Experimental: Oxidation destruction: 50 mg of sample weighted accurately was added into measuring flask of 100 mL, and 10 mL 30% H2O2 was added. After standing at room temperature for 2 hour, the mixture was diluted with mobile phase to scale and shook to be homogeneous, and determined by HPLC.
as §1, §2

[3] = 30% H2O2, room temperature, 2 hour

SMILES: Nc1cccc2c1CN(C1CCC(=O)NC1=O)C2=O (single isomer, unassigned) [Polymorph I, 3-(4-amino-1-oxo-1,3-dihydro-2H-isoindole-2-yl)-piperidine-2,6-dione]
- Major impurity, peak tR5.872-5.948 [1]: 0.01%
- Major impurity, peak tR10.961-11.165 [1]: 0.03%
- Total impurities in raw materials before destruction ([1]; HPLC peak area normalization): impurities: 0.04%
- Major impurity, peak tR5.649-5.660 [2, 3]: 0.09%
- Major impurity, peak tR10.372-10.401 [2, 3]: 0.03%
- Major impurity, peak tR32.279-32.318 [2, 3]: 0.01%
- Major impurity, peak tR35.063-35.098 [2, 3]: 0.02%
- Total impurities generated by oxidation destruction [2, 3]: impurities: 0.16%
- Chemical stability (in words) ([2]; oxidating condition / oxidation destroy experiment): better stability
